Laboratory results reported in patent US20220389061A1, “IMMUNOMODULATORS” (priority 2019, published 2022).
Read-outs that look alike come from different tables or passages of the source. Starred links: 1 amine or outer side, 2 acyl side, 3 side chain; linkers in the order of their positions; H or OH if unused. Positions of bridges follow the written chain, without caps; N, C: chain ends. Non-standard residues stand in square brackets, D forms with d. Residues, ends and D or L forms follow the SMILES beside them. Groups on a side chain read outwards from the residue. *: point of attachment. Trp(1-CH2CO2Me) = COC(=O)Cn1cc(C[C@H](N)C(=O)O)c2ccccc21; Trp(1-CH2COOH) = N[C@@H](Cc1cn(CC(=O)O)c2ccccc12)C(=O)O; Benzoyl(2-(4-MeOPh)) = COc1ccc(-c2ccccc2C(=O)*)cc1; NH(benzothiophen-5-yl) = c1cc2cc(N*)ccc2s1; X73 = FC(F)(F)c1cc(NC(=S)*)cc(C(F)(F)F)c1; X8 = NC(=O)c1c[nH]c2c(NC(=S)*)cccc12; X1 = S=C(Nc1ccc2c(c1)Cc1ccccc1-2)*; Hyp = O=C(O)[C@@H]1C[C@@H](O)CN1; X43 = S=C(Nc1ccccc1Oc1ccccc1)*; NMeNle = CCCC[C@H](NC)C(=O)O; X4 = S=C(Nc1ccc2c(c1)OCCO2)*; NMeA = CN[C@@H](C)C(=O)O; Dab = NCC[C@H](N)C(=O)O; Dap = NC[C@H](N)C(=O)O; CO = O=C([*:1])[*:2]; Bz = O=C(c1ccccc1)*

Target: T1, PD-1/PD-L1 (Homo sapiens, UniProt Q9NZQ7)
T1 construct: TVMV protease site linker (C); made in house; host or cells: HEK293T cells
T1 sequence (Q9NZQ7 18-239): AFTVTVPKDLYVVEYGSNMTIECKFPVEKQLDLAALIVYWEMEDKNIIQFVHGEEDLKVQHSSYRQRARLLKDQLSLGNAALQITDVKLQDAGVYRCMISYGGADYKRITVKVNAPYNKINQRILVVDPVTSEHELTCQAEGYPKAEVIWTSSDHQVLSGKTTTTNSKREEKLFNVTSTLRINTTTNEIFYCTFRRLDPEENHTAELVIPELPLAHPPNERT
Experiment: PD-1/PD-L1 Homogenous Time-Resolved Fluorescence (HTRF) binding assay
Procedure, shortened: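 Compounds preincubated 15 min with PD-L1-His (10 nM final), then PD-1-Ig (20 nM final) added for 15 min in dPBS with 0.1% BSA, 0.05% Tween-20. Detection by Eu-cryptate anti-Ig (1 nM) and APC anti-His (20 nM) HTRF.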

[1] = PD-L1-His 10 nM pre-incubated with inhibitor, PD-1-Ig 20 nM, read-out: HTRF IC50

SMILES	IC50 [1] [nM]	IC50 [nM]
CCCC[C@H]1C(=O)N(C)[C@@H](CCCC)C(=O)N[C@@H](CC(C)C)C(=O)N[C@H](C(=O)NCC(N)=O)CSCC(=O)N[C@@H](Cc2ccc(O)cc2)C(=O)N(C)[C@@H](C)C(=O)N[C@@H](CC(N)=O)C(=O)N2CCC[C@H]2C(=O)N[C@@H](CNC(=S)Nc2cccc3c(C(N)=O)c[nH]c23)C(=O)N[C@@H](CC(C)C)C(=O)N2C[C@H](O)C[C@H]2C(=O)N[C@@H](Cc2c[nH]c3ccccc23)C(=O)N[C@@H](CCN)C(=O)N[C@@H](Cc2cn(CC(=O)O)c3ccccc23)C(=O)N1C [Example 3017] ({CH2CO}-Y[NMeA]NP[Dap](X8)L[Hyp]W[Dab][Trp(1-CH2COOH)][NMeNle][NMeNle]LCG-NH2; thioether N-14)	3.6	–
CCCC[C@H]1C(=O)N(C)[C@@H](CCCC)C(=O)N[C@@H](CC(C)C)C(=O)N[C@H](C(=O)NCC(N)=O)CSCC(=O)N[C@@H](Cc2ccc(O)cc2)C(=O)N(C)[C@@H](C)C(=O)N[C@@H](CC(N)=O)C(=O)N2CCC[C@H]2C(=O)N[C@@H](CNC(=O)c2ccccc2)C(=O)N[C@@H](CC(C)C)C(=O)N2C[C@H](O)C[C@H]2C(=O)N[C@@H](Cc2c[nH]c3ccccc23)C(=O)N[C@@H](CCNC(=O)c2ccccc2)C(=O)N[C@@H](Cc2cn(CC(=O)OC)c3ccccc23)C(=O)N1C [Example 1006] ({CH2CO}-Y[NMeA]NP[Dap](Bz)L[Hyp]W[Dab](Bz)[Trp(1-CH2CO2Me)][NMeNle][NMeNle]LCG-NH2; thioether N-14)	–	0.2
CCCC[C@H]1C(=O)N(C)[C@@H](CCCC)C(=O)N[C@@H](CC(C)C)C(=O)N[C@H](C(=O)NCC(N)=O)CSCC(=O)N[C@@H](Cc2ccc(O)cc2)C(=O)N(C)[C@@H](C)C(=O)N[C@@H](CC(N)=O)C(=O)N2CCC[C@H]2C(=O)N[C@@H](CNC(=S)Nc2cc(C(F)(F)F)cc(C(F)(F)F)c2)C(=O)N[C@@H](CC(C)C)C(=O)N2C[C@H](O)C[C@H]2C(=O)N[C@@H](Cc2c[nH]c3ccccc23)C(=O)N[C@@H](CCNC(=S)Nc2cc(C(F)(F)F)cc(C(F)(F)F)c2)C(=O)N[C@@H](Cc2cn(CC(=O)O)c3ccccc23)C(=O)N1C [Example 1124] ({CH2CO}-Y[NMeA]NP[Dap](X73)L[Hyp]W[Dab](X73)[Trp(1-CH2COOH)][NMeNle][NMeNle]LCG-NH2; thioether N-14)	87	–
CCCC[C@H]1C(=O)N(C)[C@@H](CCCC)C(=O)N[C@@H](CC(C)C)C(=O)N[C@H](C(=O)NCC(N)=O)CSCC(=O)N[C@@H](Cc2ccc(O)cc2)C(=O)N(C)[C@@H](C)C(=O)N[C@@H](CC(N)=O)C(=O)N2CCC[C@H]2C(=O)N[C@@H](CNC(=O)Nc2ccc3sccc3c2)C(=O)N[C@@H](CC(C)C)C(=O)N2C[C@H](O)C[C@H]2C(=O)N[C@@H](Cc2c[nH]c3ccccc23)C(=O)N[C@@H](CCNC(=O)Nc2ccc3sccc3c2)C(=O)N[C@@H](Cc2cn(CC(=O)O)c3ccccc23)C(=O)N1C [Example 3003] ({CH2CO}-Y[NMeA]NP[Dap]([CO-NH(benzothiophen-5-yl)])L[Hyp]W[Dab]([CO-NH(benzothiophen-5-yl)])[Trp(1-CH2COOH)][NMeNle][NMeNle]LCG-NH2; thioether N-14)	2.3	–
CCCC[C@H]1C(=O)N(C)[C@@H](CCCC)C(=O)N[C@@H](CC(C)C)C(=O)N[C@H](C(=O)NCC(N)=O)CSCC(=O)N[C@@H](Cc2ccc(O)cc2)C(=O)N(C)[C@@H](C)C(=O)N[C@@H](CC(N)=O)C(=O)N2CCC[C@H]2C(=O)N[C@@H](CNC(=O)c2ccccc2-c2ccc(OC)cc2)C(=O)N[C@@H](CC(C)C)C(=O)N2C[C@H](O)C[C@H]2C(=O)N[C@@H](Cc2c[nH]c3ccccc23)C(=O)N[C@@H](CCNC(=O)c2ccccc2-c2ccc(OC)cc2)C(=O)N[C@@H](Cc2cn(CC(=O)OC)c3ccccc23)C(=O)N1C [Example 1050] ({CH2CO}-Y[NMeA]NP[Dap](Benzoyl(2-(4-MeOPh)))L[Hyp]W[Dab](Benzoyl(2-(4-MeOPh)))[Trp(1-CH2CO2Me)][NMeNle][NMeNle]LCG-NH2; thioether N-14)	39	–
CCCC[C@H]1C(=O)N(C)[C@@H](CCCC)C(=O)N[C@@H](CC(C)C)C(=O)N[C@H](C(=O)NCC(N)=O)CSCC(=O)N[C@@H](Cc2ccc(O)cc2)C(=O)N(C)[C@@H](C)C(=O)N[C@@H](CC(N)=O)C(=O)N2CCC[C@H]2C(=O)N[C@@H](CNC(=S)Nc2ccccc2Oc2ccccc2)C(=O)N[C@@H](CC(C)C)C(=O)N2C[C@H](O)C[C@H]2C(=O)N[C@@H](Cc2c[nH]c3ccccc23)C(=O)N[C@@H](CCN)C(=O)N[C@@H](Cc2cn(CC(=O)O)c3ccccc23)C(=O)N1C [Example 1135] ({CH2CO}-Y[NMeA]NP[Dap](X43)L[Hyp]W[Dab][Trp(1-CH2COOH)][NMeNle][NMeNle]LCG-NH2; thioether N-14)	4.9	–
CCCC[C@H]1C(=O)N(C)[C@@H](CCCC)C(=O)N[C@@H](CC(C)C)C(=O)N[C@H](C(=O)NCC(N)=O)CSCC(=O)N[C@@H](Cc2ccc(O)cc2)C(=O)N(C)[C@@H](C)C(=O)N[C@@H](CC(N)=O)C(=O)N2CCC[C@H]2C(=O)N[C@@H](CNC(=S)Nc2ccc3c(c2)Cc2ccccc2-3)C(=O)N[C@@H](CC(C)C)C(=O)N2C[C@H](O)C[C@H]2C(=O)N[C@@H](Cc2c[nH]c3ccccc23)C(=O)N[C@@H](CCNC(=S)Nc2ccc3c(c2)Cc2ccccc2-3)C(=O)N[C@@H](Cc2cn(CC(=O)O)c3ccccc23)C(=O)N1C [Example 2012] ({CH2CO}-Y[NMeA]NP[Dap](X1)L[Hyp]W[Dab](X1)[Trp(1-CH2COOH)][NMeNle][NMeNle]LCG-NH2; thioether N-14)	15.2	–
CCCC[C@H]1C(=O)N(C)[C@@H](CCCC)C(=O)N[C@@H](CC(C)C)C(=O)N[C@H](C(=O)NCC(N)=O)CSCC(=O)N[C@@H](Cc2ccc(O)cc2)C(=O)N(C)[C@@H](C)C(=O)N[C@@H](CC(N)=O)C(=O)N2CCC[C@H]2C(=O)N[C@@H](CNC(=O)Nc2ccc3sccc3c2)C(=O)N[C@@H](CC(C)C)C(=O)N2C[C@H](O)C[C@H]2C(=O)N[C@@H](Cc2c[nH]c3ccccc23)C(=O)N[C@@H](CCN)C(=O)N[C@@H](Cc2cn(CC(=O)O)c3ccccc23)C(=O)N1C [Example 3026] ({CH2CO}-Y[NMeA]NP[Dap]([CO-NH(benzothiophen-5-yl)])L[Hyp]W[Dab][Trp(1-CH2COOH)][NMeNle][NMeNle]LCG-NH2; thioether N-14)	3.3	–
CCCC[C@H]1C(=O)N(C)[C@@H](CCCC)C(=O)N[C@@H](CC(C)C)C(=O)N[C@H](C(=O)NCC(N)=O)CSCC(=O)N[C@@H](Cc2ccc(O)cc2)C(=O)N(C)[C@@H](C)C(=O)N[C@@H](CC(N)=O)C(=O)N2CCC[C@H]2C(=O)N[C@@H](CNC(=S)Nc2ccc3c(c2)OCCO3)C(=O)N[C@@H](CC(C)C)C(=O)N2C[C@H](O)C[C@H]2C(=O)N[C@@H](Cc2c[nH]c3ccccc23)C(=O)N[C@@H](CCN)C(=O)N[C@@H](Cc2cn(CC(=O)O)c3ccccc23)C(=O)N1C [Example 3073] ({CH2CO}-Y[NMeA]NP[Dap](X4)L[Hyp]W[Dab][Trp(1-CH2COOH)][NMeNle][NMeNle]LCG-NH2; thioether N-14)	5	–
CCCC[C@H]1C(=O)N(C)[C@@H](CCCC)C(=O)N[C@@H](CC(C)C)C(=O)N[C@H](C(=O)NCC(N)=O)CSCC(=O)N[C@@H](Cc2ccc(O)cc2)C(=O)N(C)[C@@H](C)C(=O)N[C@@H](CC(N)=O)C(=O)N2CCC[C@H]2C(=O)N[C@@H](CNC(=S)Nc2ccc3c(c2)OCCO3)C(=O)N[C@@H](CC(C)C)C(=O)N2C[C@H](O)C[C@H]2C(=O)N[C@@H](Cc2c[nH]c3ccccc23)C(=O)N[C@@H](CCNC(=S)Nc2ccc3c(c2)OCCO3)C(=O)N[C@@H](Cc2cn(CC(=O)O)c3ccccc23)C(=O)N1C [Example 3069] ({CH2CO}-Y[NMeA]NP[Dap](X4)L[Hyp]W[Dab](X4)[Trp(1-CH2COOH)][NMeNle][NMeNle]LCG-NH2; thioether N-14)	3.1	–
